# Reference: the supplement of paper PMC10307832
# How the values were obtained:
# Experiment in all cases: relative viability (nuclei count vs DMSO), 5 days (fraction); higher = more cells survive
# [1] = compound: Nc1nc2[nH]cc(CCc3ccc(C(=O)N[C@@H](CCC(=O)O)C(=O)O)cc3)c2c(=O)[nH]1 [Pemetrexed] + Cc1nc(Nc2ncc(C(=O)Nc3c(C)cccc3Cl)s2)cc(N2CCN(CCO)CC2)n1 [Dasatinib] (partner 0.075 µM)
# Procedure, shortened: (§1)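 Relative viability divides the nuclei count in treated wells by that in vehicle wells. Lung cancer cell lines were seeded in 1536-well plates, dosed by pin tool the next day, and fixed and stained after 5 days in one step with final 0.05% Triton X-100, 1% formaldehyde and 1 ug/ml Hoechst. Dosing was a single drug or a fixed anchor-drug dose plus five library-drug doses (not always all listed) in √10 steps, and values are medians of duplicate plates imaged at 4×.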
# [2] = compound: CC[C@H](Nc1ncnc2[nH]cnc12)c1nc2cccc(F)c2c(=O)n1-c1ccccc1 [Idelalisib] + NC(=O)Nc1cc(-c2cccc(F)c2)sc1C(=O)N[C@H]1CCCNC1 [AZD7762] (partner 0.2 µM)
# Procedure, shortened: as §1
# [3] = compound: CC[C@H](Nc1ncnc2[nH]cnc12)c1nc2cccc(F)c2c(=O)n1-c1ccccc1 [Idelalisib] + CCNC(=O)c1noc(-c2cc(C(C)C)c(O)cc2O)c1-c1ccc(CN2CCOCC2)cc1 [Luminespib] (partner 0.01 µM)
# Procedure, shortened: as §1
# [4] = compound: Nc1nc2[nH]cc(CCc3ccc(C(=O)N[C@@H](CCC(=O)O)C(=O)O)cc3)c2c(=O)[nH]1 [Pemetrexed] + COc1cc2c(Oc3ccc(NC(=O)C4(C(=O)Nc5ccc(F)cc5)CC4)cc3F)ccnc2cc1OCCCN1CCOCC1 [Foretinib] (partner 0.25 µM)
# Procedure, shortened: as §1
Cell Line,relative viability ([1]; first compound 0.002 µM),relative viability ([1]; first compound 0.006325 µM),relative viability ([1]; first compound 0.02 µM),relative viability ([1]; first compound 0.06325 µM),relative viability ([1]; first compound 0.2 µM),relative viability ([2]; first compound 0.04 µM),relative viability ([2]; first compound 0.1265 µM),relative viability ([2]; first compound 0.4 µM),relative viability ([2]; first compound 1.265 µM),relative viability ([2]; first compound 4 µM),relative viability ([3]; first compound 0.04 µM),relative viability ([3]; first compound 0.1265 µM),relative viability ([3]; first compound 0.4 µM),relative viability ([3]; first compound 1.265 µM),relative viability ([3]; first compound 4 µM),relative viability ([4]; first compound 0.002 µM),relative viability ([4]; first compound 0.006325 µM),relative viability ([4]; first compound 0.02 µM),relative viability ([4]; first compound 0.06325 µM),relative viability ([4]; first compound 0.2 µM)
LCLC-103H,0.43,0.508,0.55,0.436,0.489,0.757,0.809,0.724,0.786,0.652,0.998,0.731,0.757,0.933,0.794,0.719,0.666,0.833,0.725,0.802
LK-2,0.289,0.198,0.318,0.341,0.254,0.637,0.395,–,0.27,0.371,0.177,0.142,–,0.196,0.178,1.09,0.984,1.25,1.2,1.11
LOU-NH91,0.495,0.576,0.599,0.457,0.345,0.833,0.807,0.686,0.638,0.673,0.281,0.321,0.327,0.33,0.315,0.941,0.915,0.992,0.709,0.434
LU99A,0.504,0.441,0.459,0.516,0.542,0.335,0.422,0.294,0.209,0.425,0.217,0.274,0.238,0.285,0.243,0.776,0.775,0.811,0.793,0.768
LXF-289,0.175,0.192,0.239,0.281,0.217,1.16,1.09,1.15,0.838,1.16,0.776,0.575,0.663,0.815,0.439,0.925,0.994,1.03,0.991,0.959
NCI-H23,0.783,0.762,0.933,0.74,0.781,0.265,0.218,0.247,0.195,0.235,0.219,0.221,–,–,0.196,1.03,0.943,1.22,0.618,0.989
NCI-H322M,0.248,0.257,0.262,0.242,0.235,0.628,0.524,0.678,0.439,0.525,0.955,0.919,0.719,0.847,0.683,0.961,0.864,0.973,0.917,0.834
NCI-H358,0.145,0.176,0.205,0.167,0.165,0.571,0.462,0.377,0.295,0.409,0.284,0.587,0.347,0.235,0.159,0.624,0.747,0.56,0.223,0.149
NCI-H441,0.429,0.573,0.556,0.392,0.273,1.31,1.08,–,0.715,1.32,0.365,0.354,0.308,0.308,0.316,1.02,0.926,1.08,0.741,0.438
NCI-H460,0.357,0.536,0.524,0.406,0.101,0.639,0.611,0.615,0.2,0.682,0.0345,0.032,0.0291,0.0326,0.0297,0.989,0.942,1.1,0.64,0.0776
NCI-H596,0.634,0.642,0.464,0.427,0.414,1.02,1.11,1.24,0.853,0.912,1.13,0.925,0.827,0.905,0.847,0.765,0.83,0.938,0.786,0.581
NCI-H647,0.151,0.16,0.175,0.156,0.127,0.546,0.631,0.409,0.198,0.397,0.171,0.141,–,0.241,0.121,0.946,1.07,1.33,0.989,0.386
NCI-H650,0.408,0.469,0.431,0.444,0.481,1.48,1.04,0.79,0.378,1.08,0.894,0.703,0.648,0.869,0.765,1.07,0.97,1.08,0.988,1.02
NCI-H727,–,0.395,0.386,0.421,0.381,0.625,0.574,0.578,0.379,0.704,0.327,0.345,–,0.333,0.451,0.823,0.902,0.87,0.838,0.966
NCI-H838,0.361,0.285,0.262,0.212,0.218,0.902,0.935,0.907,0.69,0.892,0.235,0.346,0.273,0.339,0.243,1.01,0.912,1.16,0.91,0.267
NCI-H1355,0.612,0.692,0.703,0.748,0.752,0.817,0.786,0.625,0.523,0.703,0.672,0.779,0.531,0.628,0.602,0.864,0.956,1.05,1.01,0.948

Cell Line,relative viability ([1]; first compound 0.002 µM),relative viability ([1]; first compound 0.006325 µM),relative viability ([1]; first compound 0.02 µM),relative viability ([1]; first compound 0.06325 µM),relative viability ([1]; first compound 0.2 µM),relative viability ([2]; first compound 0.04 µM),relative viability ([2]; first compound 0.1265 µM),relative viability ([2]; first compound 0.4 µM),relative viability ([2]; first compound 1.265 µM),relative viability ([2]; first compound 4 µM),relative viability ([3]; first compound 0.04 µM),relative viability ([3]; first compound 0.1265 µM),relative viability ([3]; first compound 0.4 µM),relative viability ([3]; first compound 1.265 µM),relative viability ([3]; first compound 4 µM),relative viability ([4]; first compound 0.002 µM),relative viability ([4]; first compound 0.006325 µM),relative viability ([4]; first compound 0.02 µM),relative viability ([4]; first compound 0.06325 µM),relative viability ([4]; first compound 0.2 µM)
NCI-H1395,0.441,0.471,0.481,0.369,0.401,0.415,0.45,0.417,0.371,0.422,0.675,0.72,0.662,0.694,0.645,0.912,0.965,1.05,0.962,0.937
NCI-H1437,–,0.473,0.468,0.334,0.21,1.09,1.03,1.06,0.863,1.15,1.11,1.15,1.05,1.22,1.18,–,1.2,1.07,0.796,0.413
NCI-H1651,0.388,0.357,0.439,0.346,0.428,0.522,0.456,0.46,0.245,0.519,0.789,1,0.832,0.809,0.605,0.673,0.772,0.826,0.754,0.737
NCI-H1666,0.778,0.857,0.818,0.754,0.585,0.821,0.808,0.878,0.763,0.851,1.09,1.13,1.06,1.01,1.04,0.942,0.996,0.929,0.953,0.832
NCI-H1734,0.388,0.445,0.49,0.433,0.381,0.544,0.543,0.477,0.209,0.552,0.247,0.184,0.203,0.192,0.155,0.871,0.77,0.976,0.794,0.532
NCI-H1755,0.397,0.409,0.448,0.436,0.379,0.386,0.437,0.376,0.31,0.381,0.331,0.339,0.449,0.699,0.293,0.871,0.925,0.94,0.923,0.849
NCI-H1793,0.312,0.294,0.46,0.375,0.412,0.758,0.449,–,0.14,0.326,0.208,0.253,0.166,0.179,0.183,0.844,0.575,0.733,0.465,0.749
NCI-H1915,0.236,0.313,0.313,0.306,0.319,0.766,0.687,0.643,0.552,0.68,0.843,0.809,0.759,0.878,0.83,1.04,1.05,1.11,1.07,1.11
NCI-H1944,–,0.201,0.195,0.212,0.217,0.554,0.501,0.457,0.2,0.61,0.809,0.621,0.609,0.636,0.532,–,0.83,0.922,0.831,0.837
NCI-H1975,0.249,0.333,0.429,0.342,0.275,0.75,0.724,0.661,0.743,0.646,0.216,0.157,0.16,0.213,0.207,0.899,0.914,1.02,0.825,0.401
NCI-H1993,0.325,0.606,0.546,0.496,0.358,0.647,0.839,0.652,0.714,0.623,0.778,0.889,0.779,1.06,0.822,0.806,0.838,0.74,0.774,0.811
NCI-H2085,0.23,0.228,0.291,0.23,0.242,0.951,0.979,0.887,0.436,0.471,0.422,0.409,0.374,0.487,0.257,1.03,0.737,1.11,0.966,1.17
NCI-H2087,0.819,0.808,0.974,0.751,0.59,1.34,1.33,1.32,1.19,1.32,0.198,0.213,0.16,0.165,0.115,1.09,1.01,1.17,0.986,0.783
NCI-H2126,0.571,0.607,0.625,0.548,0.517,0.961,1.06,0.94,1.02,1,0.929,0.893,0.802,0.961,0.929,1.02,1.19,1.29,0.565,1.03
NCI-H2170,0.581,0.631,0.612,0.505,0.575,0.859,0.873,0.819,0.542,0.737,0.548,0.843,0.645,0.61,0.673,0.918,1.02,0.999,1,1.02
NCI-H2342,0.257,0.322,0.351,0.325,0.321,0.626,0.498,0.49,0.484,0.46,0.764,0.757,0.629,0.72,0.496,0.997,1.08,0.94,1.05,0.915
